Laboratory results reported in publication PMC9021288 (Nature Communications, 2022).

Assays:
[1] = system: P. falciparum NF54 male gametocytes; assay: Dual gamete formation assay, male; assay type: cell-based, Plasmodium falciparum
Experimental: After a 48-h incubation, gamete formation was stimulated by a drop in temperature (from 37 °C to 26 °C), and the addition of xanthurenic acid (2.5 µM). At 20 min after induction, exflagellation was recorded by automated time-lapse microscopy. After data collection, the plate was returned to a 26 °C incubator and incubated for 24 h. Female gamete formation was assessed by live staining with a Cy3-labelled anti-Pfs25 monoclonal antibody (1:2222) and recorded by automated microscopy.

[2] = target: T1, hCaV 1.2 (Homo sapiens, UniProt Q13936); assay: Manual patch clamp; assay type: cell-based; conditions: for Minimum current: single cells and Mean, mean
T1 construct: Metrion Biosciences
T1 sequence (Q13936 whole entry): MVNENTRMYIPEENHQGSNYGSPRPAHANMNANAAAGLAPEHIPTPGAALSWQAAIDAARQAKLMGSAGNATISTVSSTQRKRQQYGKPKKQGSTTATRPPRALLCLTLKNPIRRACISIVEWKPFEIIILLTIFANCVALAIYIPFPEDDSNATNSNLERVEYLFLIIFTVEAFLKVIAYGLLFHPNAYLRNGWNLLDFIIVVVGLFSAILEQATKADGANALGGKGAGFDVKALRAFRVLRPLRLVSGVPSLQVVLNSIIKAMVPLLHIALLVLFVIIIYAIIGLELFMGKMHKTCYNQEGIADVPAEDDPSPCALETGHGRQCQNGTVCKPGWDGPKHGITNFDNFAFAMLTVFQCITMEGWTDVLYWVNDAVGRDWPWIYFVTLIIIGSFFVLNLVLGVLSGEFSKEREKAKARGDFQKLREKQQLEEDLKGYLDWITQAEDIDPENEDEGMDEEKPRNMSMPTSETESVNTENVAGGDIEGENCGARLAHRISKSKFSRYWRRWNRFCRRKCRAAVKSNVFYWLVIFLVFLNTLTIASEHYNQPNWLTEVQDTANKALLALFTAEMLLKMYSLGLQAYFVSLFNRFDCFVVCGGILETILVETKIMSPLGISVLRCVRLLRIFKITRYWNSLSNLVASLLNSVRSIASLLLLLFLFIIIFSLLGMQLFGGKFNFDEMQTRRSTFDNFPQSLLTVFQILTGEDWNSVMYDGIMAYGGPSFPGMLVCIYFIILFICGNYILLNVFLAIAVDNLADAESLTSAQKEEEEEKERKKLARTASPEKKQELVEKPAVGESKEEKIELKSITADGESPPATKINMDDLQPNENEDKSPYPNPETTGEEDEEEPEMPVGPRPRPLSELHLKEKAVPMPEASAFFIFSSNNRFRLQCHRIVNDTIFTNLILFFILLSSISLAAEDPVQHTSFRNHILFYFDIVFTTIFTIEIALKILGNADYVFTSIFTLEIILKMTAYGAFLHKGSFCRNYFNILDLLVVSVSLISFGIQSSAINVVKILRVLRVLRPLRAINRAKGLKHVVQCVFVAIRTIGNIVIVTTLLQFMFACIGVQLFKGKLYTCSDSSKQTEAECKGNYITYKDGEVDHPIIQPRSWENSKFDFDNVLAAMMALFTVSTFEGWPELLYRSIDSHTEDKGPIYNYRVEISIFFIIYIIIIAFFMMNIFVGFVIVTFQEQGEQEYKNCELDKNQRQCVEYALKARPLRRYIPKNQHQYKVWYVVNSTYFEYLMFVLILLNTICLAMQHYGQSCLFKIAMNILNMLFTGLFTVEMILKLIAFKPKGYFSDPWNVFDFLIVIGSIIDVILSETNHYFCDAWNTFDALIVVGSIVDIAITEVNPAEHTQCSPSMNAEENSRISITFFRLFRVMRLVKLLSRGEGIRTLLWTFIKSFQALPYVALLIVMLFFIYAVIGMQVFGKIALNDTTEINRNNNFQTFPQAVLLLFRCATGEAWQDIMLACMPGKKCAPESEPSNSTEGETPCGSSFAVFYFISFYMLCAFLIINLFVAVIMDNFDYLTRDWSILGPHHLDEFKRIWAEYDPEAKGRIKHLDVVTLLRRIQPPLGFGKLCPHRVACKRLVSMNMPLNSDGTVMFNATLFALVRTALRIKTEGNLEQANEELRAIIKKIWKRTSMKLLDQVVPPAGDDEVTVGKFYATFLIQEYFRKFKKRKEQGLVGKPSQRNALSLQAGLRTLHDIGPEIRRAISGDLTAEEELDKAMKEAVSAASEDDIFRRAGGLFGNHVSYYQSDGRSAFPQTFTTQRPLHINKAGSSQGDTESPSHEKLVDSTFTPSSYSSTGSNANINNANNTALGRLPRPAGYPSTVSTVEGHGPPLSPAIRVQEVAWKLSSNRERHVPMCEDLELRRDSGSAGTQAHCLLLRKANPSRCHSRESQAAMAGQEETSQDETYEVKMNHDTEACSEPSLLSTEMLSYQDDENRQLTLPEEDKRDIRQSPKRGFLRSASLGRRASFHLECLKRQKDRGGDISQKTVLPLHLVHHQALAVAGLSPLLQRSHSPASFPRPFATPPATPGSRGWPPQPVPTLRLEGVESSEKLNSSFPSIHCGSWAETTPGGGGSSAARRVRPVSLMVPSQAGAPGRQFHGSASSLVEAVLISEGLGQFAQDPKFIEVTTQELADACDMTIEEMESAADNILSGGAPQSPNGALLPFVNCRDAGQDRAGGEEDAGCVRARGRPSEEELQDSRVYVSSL
T1 sequence (Q08289 whole entry partner): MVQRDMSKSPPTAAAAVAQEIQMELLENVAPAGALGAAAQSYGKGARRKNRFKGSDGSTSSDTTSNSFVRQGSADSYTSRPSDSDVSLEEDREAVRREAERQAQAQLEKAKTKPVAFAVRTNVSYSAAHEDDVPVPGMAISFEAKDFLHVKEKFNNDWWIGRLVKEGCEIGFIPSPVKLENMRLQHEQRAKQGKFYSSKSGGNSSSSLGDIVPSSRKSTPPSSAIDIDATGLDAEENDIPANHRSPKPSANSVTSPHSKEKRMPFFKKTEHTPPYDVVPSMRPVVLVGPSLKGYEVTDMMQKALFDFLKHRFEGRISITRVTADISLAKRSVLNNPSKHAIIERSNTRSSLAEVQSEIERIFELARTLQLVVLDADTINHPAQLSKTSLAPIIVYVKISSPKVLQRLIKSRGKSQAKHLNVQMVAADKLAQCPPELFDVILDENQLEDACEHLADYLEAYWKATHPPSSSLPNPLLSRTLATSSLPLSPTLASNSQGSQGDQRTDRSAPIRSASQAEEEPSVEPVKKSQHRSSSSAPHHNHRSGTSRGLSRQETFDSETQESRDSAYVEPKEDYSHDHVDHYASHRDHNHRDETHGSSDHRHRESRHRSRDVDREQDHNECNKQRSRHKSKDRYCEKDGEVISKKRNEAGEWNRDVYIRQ
T1 sequence (P54289 25-946 partner limits assumed): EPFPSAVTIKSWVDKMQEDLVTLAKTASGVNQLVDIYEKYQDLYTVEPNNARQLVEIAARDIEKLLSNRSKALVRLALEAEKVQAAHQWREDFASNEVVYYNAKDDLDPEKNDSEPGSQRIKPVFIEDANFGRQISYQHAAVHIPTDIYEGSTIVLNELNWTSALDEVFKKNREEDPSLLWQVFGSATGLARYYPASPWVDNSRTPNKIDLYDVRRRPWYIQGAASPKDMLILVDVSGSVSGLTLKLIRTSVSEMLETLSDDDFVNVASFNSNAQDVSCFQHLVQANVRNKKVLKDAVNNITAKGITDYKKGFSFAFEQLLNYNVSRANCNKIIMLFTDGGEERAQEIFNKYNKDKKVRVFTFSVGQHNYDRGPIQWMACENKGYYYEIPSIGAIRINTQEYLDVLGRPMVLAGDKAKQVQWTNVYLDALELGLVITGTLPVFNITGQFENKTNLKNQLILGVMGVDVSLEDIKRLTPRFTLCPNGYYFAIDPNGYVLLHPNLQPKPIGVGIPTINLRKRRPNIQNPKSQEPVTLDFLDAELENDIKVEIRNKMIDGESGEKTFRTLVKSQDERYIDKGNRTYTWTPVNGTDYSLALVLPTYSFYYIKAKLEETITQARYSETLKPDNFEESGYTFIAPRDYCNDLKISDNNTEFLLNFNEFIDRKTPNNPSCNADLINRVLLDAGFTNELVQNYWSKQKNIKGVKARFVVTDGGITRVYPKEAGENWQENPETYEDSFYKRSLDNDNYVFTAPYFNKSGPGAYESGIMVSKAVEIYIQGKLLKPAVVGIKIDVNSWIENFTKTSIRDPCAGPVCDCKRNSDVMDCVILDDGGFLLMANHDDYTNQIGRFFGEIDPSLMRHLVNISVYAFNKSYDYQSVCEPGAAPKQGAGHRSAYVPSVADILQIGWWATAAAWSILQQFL
T1 sequence (P54289 947-1103 partner limits assumed): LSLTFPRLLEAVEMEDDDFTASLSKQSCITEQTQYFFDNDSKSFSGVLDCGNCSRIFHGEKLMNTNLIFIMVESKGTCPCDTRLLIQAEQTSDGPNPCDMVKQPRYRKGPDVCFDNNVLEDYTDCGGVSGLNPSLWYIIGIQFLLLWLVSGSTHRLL
Experimental: (§1) Safety studies were performed by commercial services using their standard protocols. […] Genotoxicity was investigated using the Ames test (Bacterial Reverse Mutation Assay) (Covance Laboratories Ltd, North Yorkshire, England). In vitro mammalian cell micronucleus screening assay was studied in human peripheral blood lymphocytes (BioReliance Corporation, Rockville, USA). Cardiotoxicity was determined against the hERG channel in an automated patch clamp assay using the Qpatch or against the hNaV 1.5, hKV 1.5 and hCaV 1.2 using a manual patch-clamp technique (Metrion Biosciences, Cambridge, UK). Cytotoxicity in human and rat primary hepatocytes was assessed using the CellTiter-Blue assay performed by commercial services (KaLy-Cell). The viability of HepG2 cells was monitored through the addition of 1 mM resazurin. Following 6 h incubation, the relative amount of reduced resazurin was detected in a fluorimeter and compared to the assay controls (vehicle: 0.1% DMSO and positive control: 10 µM puromycin).

[3] = target: T2, hKV 1.5 (Homo sapiens, UniProt P22460); assay: Manual patch clamp; assay type: cell-based; conditions: for Charge / Peak current: single cells and Mean, mean
T2 construct: Metrion Biosciences
T2 sequence (P22460 whole entry): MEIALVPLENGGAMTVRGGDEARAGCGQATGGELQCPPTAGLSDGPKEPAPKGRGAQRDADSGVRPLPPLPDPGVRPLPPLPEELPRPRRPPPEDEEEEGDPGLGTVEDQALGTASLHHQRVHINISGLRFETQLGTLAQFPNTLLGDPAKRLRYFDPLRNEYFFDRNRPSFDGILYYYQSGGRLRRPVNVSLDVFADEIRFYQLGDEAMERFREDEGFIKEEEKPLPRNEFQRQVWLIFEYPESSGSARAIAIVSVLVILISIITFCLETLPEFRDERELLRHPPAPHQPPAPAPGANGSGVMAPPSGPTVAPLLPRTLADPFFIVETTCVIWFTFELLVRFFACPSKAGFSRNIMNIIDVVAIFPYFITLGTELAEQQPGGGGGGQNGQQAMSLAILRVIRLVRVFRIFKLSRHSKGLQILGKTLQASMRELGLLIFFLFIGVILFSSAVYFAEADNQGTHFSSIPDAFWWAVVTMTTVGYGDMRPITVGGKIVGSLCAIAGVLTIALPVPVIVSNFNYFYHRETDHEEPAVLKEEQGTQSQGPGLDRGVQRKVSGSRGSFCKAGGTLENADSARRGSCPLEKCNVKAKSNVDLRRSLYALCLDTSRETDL
Experimental: as §1

[4] = target: T3, hNaV 1.5 (Homo sapiens, UniProt Q14524); assay: Manual patch clamp; assay type: cell-based; conditions: for Minimum current: single cells and Mean, mean
T3 construct: Metrion Biosciences
Experimental: as §1

C[C@@H](CNC(=O)[C@H](O)C(C)(C)CO)NC(=O)c1cc(F)c(F)cc1F [MMV693183]
IC50 [1]: 1000 nM
Inhibition ([2]; 10 µM): 24.20%
Minimum current ([2]; Cav1.2, 0.3uM): 4.49%
Minimum current ([2]; Cav1.2, 1uM): 7.60%
Minimum current ([2]; Cav1.2, 10uM): 24.20%
IC50 ([2]; hCaV 1.2): > 10 µM
Inhibition ([3]; 10 µM): 2.15%
IC50 ([3]; hKV 1.5): > 10 µM
Charge ([3]; hKv1.5, 300nM): 4.53%
Peak current ([3]; hKv1.5, 300nM): 0.19%
Peak current ([3]; hKv1.5, 1uM): 1.06%
Charge ([3]; hKv1.5, 3uM): 8.60%
Peak current ([3]; hKv1.5, 3uM): 0.58%
Peak current ([3]; hKv1.5, 10uM): 2.15%
Inhibition ([4]; 10 µM): 1.56%
IC50 ([4]; hNav 1.5): > 10 µM
Minimum current ([4]; hNav1.5, 300nM, P1): 1.33%
Minimum current ([4]; hNav1.5, 300nM, P10): 2.55%
Minimum current ([4]; hNav1.5, 1uM, P10): 0.96%
Minimum current ([4]; hNav1.5, 3uM, P1): -2.90%
Minimum current ([4]; hNav1.5, 3uM, P10): 2.43%
Minimum current ([4]; hNav1.5, 10uM, P1): -1.24%
Minimum current ([4]; hNav1.5, 10uM, P10): 1.56%
